According to patent publication US20030232741A1, “Methods of treatment of glaucoma and other conditions mediated by NOS-2 expression via inhibition of the EGFR pathway” (Washington University, priority 2002, published 2003):
Entries after “also recorded” stand apart in the source; their conditions may differ.

Columns and labels:
Format in all cases: cell-based
[1] = test system: NOS-2; experiment: NOS-2 protein induction in human ONH astrocytes (immunoblot); details: for NOS-2 protein induced by elevated hydrostatic pressure: elevated hydrostatic pressure 48 hrs, AG18 40 μM, anti-EGFR antibody 1:20; for induction of NOS-2 in response to cytokines (protein/mRNA not specified): IL-1β/IFN-γ
Experimental: (§1) Twelve normal human (aged 22-51) eyes were obtained within 24 hrs after death. Lamina cribrosa astrocytes were obtained as described previously.^5 The second-passage cell cultures, which had over 95% cells positive for GFAP, were grown to 60-80% confluency and placed in serum free medium for one week before use.
(§2) Astrocytes grown on coverslips were placed under sterile, disposable polypropylene cylinders 6 cm high and 3 cm in diameter. Hydrostatic pressure was elevated by 5 cm of serum free medium, conditioned at 37° C. in a 5% CO2 humidified atmosphere. As control, the same number of cells on a coverslip was placed in 140 mm Petri dishes with 0.3 cm height of media in a volume equivalent to that used in the hydrostatic pressure experiments. Both pressurized and control cultures were maintained in a tissue culture incubator at 37° C. with a 5% CO2 humidified atmosphere for various periods. AG82 or AG18 (Calbiochem, Darmstadt, Germany) was added to the cell media 30 min before and during the period of exposure to elevated hydrostatic pressure or IL-1β/IFN-γ at final concentrations of 7 μM or 40 μM, respectively. SB202190 (Calbiochem, Darmstadt, Germany) was added to the cell media 30 min before and during the period of exposure to elevated hydrostatic pressure or IL-1β/IFN-γ at a final concentrations of 380 nM. SN-50 (BioMol, Plymouth Meeting, Pa.) was added to the cell media 30 min before and during the period of exposure to elevated hydrostatic pressure or IL-1β/IFN-γ at a final concentrations of 50 μg/ml. Monoclonal anti-EGFR antibody (Santa Cruz Biotechnology Inc, Santa Cruz, Calif.) which recognizes an EGF receptor cell surface epitope and is an antagonist of EGFR, was added to the cell media 12 hrs before and during the period of exposure to elevated hydrostatic pressure or EGF (100 ng/ml)(Sigma-Aldrich Corp., St. Louis, Mo.) at a working dilution of 1:20. Astrocytes were stimulated by the addition to the media of 200 U/ml human IFN-γ (Sigma-Aldrich Corp, Saint Louis, Mo.) and 10 ng/ml human IL-1β (Sigma-Aldrich Corp, Saint Louis, Mo.) for 12 or 48 hours.
NOS-2 immunoblot was as described previously.^5 For EGFR and p-EGFR immunoblot,^11 astrocytes were lysed in buffer (20 mm HEPES, pH 7.0, 10 mM KCI, 2 mM MgCl2, 0.5% Nonidet P40, 1 mM Na3VO4, 1 mM PMSF, 0.15 U ml^−1 aprotinin) and homogenized. The non-nuclear and nuclear fractions were separated by centrifugation at 1,500 g for 5 min to sediment the nuclei. The nuclear pellet was washed with the lysis buffer and resuspended in the same buffer containing 0.5 M NaCl to extract nuclear proteins. 20 μg protein of each non-nuclear fraction and 40 μg of each nuclear fraction were separated by 10% SDS-PAGE and transferred to a nitrocellulose membrane. Immunoblotting was performed with specific primary antibody against EGFR and p-EGFR followed by peroxidase-conjugated secondary antibody (Santa Cruz Biotechnology Inc, Santa Cruz, Calif.) and imaged by the enhanced chemiluminescence detection system (Amersham Life Science Inc, Arlington Heights, Ill.).

[2] = test system: NOS-2 mRNA; experiment: NOS-2 mRNA induction in human ONH astrocytes (semi-quantitative RT-PCR); details: AG82 7 μM, SB202190 380 nM, SN-50 50 μg/ml; for NOS-2 mRNA induced by elevated hydrostatic pressure: elevated hydrostatic pressure 12 hrs, AG18 40 μM
Experimental: as §1
as §2, with “Astrocytes were stimulated by the addition to the media of 200 U/ml human IFN-γ (Sigma-Aldrich Corp, Saint Louis, Mo.) and 10 ng/ml human IL-1β (Sigma-Aldrich Corp, Saint Louis, Mo.) for 12 or 48 hours.” left out
Semi-quantitative RT-PCR was performed as published previously.^8

[3] = molecular target: T1, p-EGFR (Homo sapiens, UniProt P00533); experiment: Immunocytochemistry for p-EGFR in cultured human ONH astrocytes exposed to elevated hydrostatic pressure; details: elevated hydrostatic pressure 10 min; AG82 7 μM added 30 min before and during
Experimental: Astrocytes grown on coverslips were placed under sterile, disposable polypropylene cylinders 6 cm high and 3 cm in diameter. Hydrostatic pressure was elevated by 5 cm of serum free medium, conditioned at 37° C. in a 5% CO2 humidified atmosphere. As control, the same number of cells on a coverslip was placed in 140 mm Petri dishes with 0.3 cm height of media in a volume equivalent to that used in the hydrostatic pressure experiments. Both pressurized and control cultures were maintained in a tissue culture incubator at 37° C. with a 5% CO2 humidified atmosphere for various periods. […]
As described previously,^5 cells grown on coverslips were fixed in 4% paraformaldehyde, incubated with specific primary antibodies against EGFR, p-EGFR or GFAP and appropriate fluorescent conjugated secondary antibodies (Molecular Probes Inc., Eugene, Ore), and visualized by fluorescence microscopy. […]

[4] = molecular target: T1, p-EGFR; experiment: Immunoblot for p-EGFR in nuclear and non-nuclear fractions of human ONH astrocytes exposed to elevated hydrostatic pressure; details: elevated hydrostatic pressure 10 min; AG82 7 μM added 30 min before and during
Experimental: NOS-2 immunoblot was as described previously.^5 For EGFR and p-EGFR immunoblot,^11 astrocytes were lysed in buffer (20 mm HEPES, pH 7.0, 10 mM KCI, 2 mM MgCl2, 0.5% Nonidet P40, 1 mM Na3VO4, 1 mM PMSF, 0.15 U ml^−1 aprotinin) and homogenized. The non-nuclear and nuclear fractions were separated by centrifugation at 1,500 g for 5 min to sediment the nuclei. […]

[5] = AG82 7 μM, SB202190 380 nM, SN-50 50 μg/ml

T1 sequence (P00533 25-1210): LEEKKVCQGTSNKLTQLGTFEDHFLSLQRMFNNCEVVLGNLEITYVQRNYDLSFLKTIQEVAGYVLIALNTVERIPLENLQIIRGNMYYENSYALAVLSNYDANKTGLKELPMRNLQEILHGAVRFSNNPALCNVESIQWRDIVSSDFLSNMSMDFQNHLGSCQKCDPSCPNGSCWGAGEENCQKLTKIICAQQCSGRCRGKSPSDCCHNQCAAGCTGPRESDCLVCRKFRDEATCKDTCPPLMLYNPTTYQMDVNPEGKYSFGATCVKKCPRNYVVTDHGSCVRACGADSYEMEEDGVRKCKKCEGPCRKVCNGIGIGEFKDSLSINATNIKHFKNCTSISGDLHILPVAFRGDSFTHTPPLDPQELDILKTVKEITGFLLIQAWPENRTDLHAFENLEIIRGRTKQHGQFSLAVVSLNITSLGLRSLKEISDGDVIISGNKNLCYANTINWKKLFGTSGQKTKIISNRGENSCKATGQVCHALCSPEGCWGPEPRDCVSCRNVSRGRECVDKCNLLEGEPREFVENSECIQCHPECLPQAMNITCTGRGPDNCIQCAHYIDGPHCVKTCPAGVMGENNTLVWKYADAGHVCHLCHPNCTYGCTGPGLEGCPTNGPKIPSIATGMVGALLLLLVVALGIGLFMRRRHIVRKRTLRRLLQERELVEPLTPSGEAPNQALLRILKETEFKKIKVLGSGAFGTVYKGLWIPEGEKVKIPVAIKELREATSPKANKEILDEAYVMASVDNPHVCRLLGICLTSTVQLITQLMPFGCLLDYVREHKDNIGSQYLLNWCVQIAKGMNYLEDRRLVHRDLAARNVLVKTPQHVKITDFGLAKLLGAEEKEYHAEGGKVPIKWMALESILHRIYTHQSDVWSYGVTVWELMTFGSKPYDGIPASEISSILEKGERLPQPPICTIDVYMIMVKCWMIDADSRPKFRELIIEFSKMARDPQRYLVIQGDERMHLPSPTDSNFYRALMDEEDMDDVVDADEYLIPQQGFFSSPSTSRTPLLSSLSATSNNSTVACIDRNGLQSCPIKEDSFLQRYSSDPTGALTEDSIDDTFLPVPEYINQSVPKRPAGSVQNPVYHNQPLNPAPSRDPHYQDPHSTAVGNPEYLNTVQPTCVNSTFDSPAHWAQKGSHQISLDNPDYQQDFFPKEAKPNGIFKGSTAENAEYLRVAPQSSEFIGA

Compound | NOS-2 protein induced by elevated hydrostatic pressure [1, 5] | NOS-2 mRNA induced by elevated hydrostatic pressure [2] | induction of NOS-2 in response to cytokines (protein/mRNA not specified) ([1]; human optic nerve astrocytes) | further results
N#CC(C#N)=Cc1ccc(O)c(O)c1 [AG18, α-Cyano-(3,4-dihydroxy)cinnamonitrile] | prevented both the increased protein level and the mRNA level of NOS-2; also recorded: significantly blocked the appearances of NOS-2 mRNA and protein | prevented both the increased protein level and the mRNA level of NOS-2; also recorded: significantly blocked the appearances of NOS-2 mRNA and protein |  | 
N#CC(C#N)=Cc1cc(O)c(O)c(O)c1 [AG82, α-Cyano-(3,4,5-trihydroxy)cinnamonitrile] | significantly prevented the increased protein level of NOS-2; also recorded: significantly blocked the appearance of NOS-2 protein in response to elevated hydrostatic pressure; also recorded: significantly blocked the appearances of NOS-2 mRNA and protein | almost completely prevented; also recorded: affects the transcription of the NOS-2 gene to mRNA in response to elevated hydrostatic pressure; also recorded: significantly blocked the appearances of NOS-2 mRNA and protein | does not inhibit the induction of NOS-2 in response to cytokines | induction of NOS-2 in response to elevated hydrostatic pressure (protein/mRNA not specified) ([1]; human optic nerve astrocytes, elevated hydrostatic pressure): blocks induction of NOS-2 in response to elevated hydrostatic pressure; immunocytochemical labeling for p-EGFR in response to elevated hydrostatic pressure [3]: blocked the increased immunocytochemical labeling for p-EGFR in the cytoplasm in response to elevated hydrostatic pressure and, most notably, there was no nuclear labeling for p-EGFR; also recorded: prevents the nuclear labeling for p-EGFR; tyrosine phosphorylation of EGFR (p-EGFR) in non-nuclear and nuclear extracts by immunoblot [4]: significantly blocked the tyrosine phosphorylation of EGFR in both non-nuclear and nuclear extracts; also recorded: completely prevents the increase in p-EGFR in both nuclear and non-nuclear fractions
Oc1ccc(-c2nc(-c3ccncc3)c(-c3ccc(F)cc3)[nH]2)cc1 [SD202190] |  |  | blocks the induction of NOS-2 in human optic nerve astrocytes in response to cytokines | NOS-2 protein induced by cytokines ([1]; 200 U/ml IFN-γ and 10 ng/ml IL-1β, 48 hours, AG82 7 μM, SB202190 380 nM, SN-50 50 μg/ml): significantly blocked the appearance of NOS-2 protein in response to cytokine stimulation; NOS-2 mRNA induced by cytokines ([2]; 200 U/ml IFN-γ and 10 ng/ml IL-1β, 12 hours): affects the transcription of the NOS-2 gene to mRNA in response to cytokines
EGF: epidermal growth factor, EGFR ligand (Sigma-Aldrich), added at 100 ng/ml (NSDSECPLSHDGYCLHDGVCMYIEALDKYACNCVVGYIGERCQYRDLKWWELR; UniProt P01133 971-1023, looked up) |  |  |  | NOS-2 protein level in astrocytes treated with EGF (Western blot and immunocytochemistry) ([1]; 100 ng/ml EGF in culture medium for 48 hrs, versus non-treated astrocytes): significantly increased; also recorded: increased labeling for NOS-2 and GFAP
